From ChEMBL document CHEMBL4804286, “3-amino-4-(4-(4 (dimethylcarbamoyl) phenyl)-1,4-diazepan-1-yl) thieno [2,3-b] pyridine-2-carboxamide for use in cancer therapy and formulations comprising the same” (2020)
Several values for one entry are separate records, joined by “and”; a condition that tells them apart may be missing. Equal entries are not always repeated.

Experiments:
[1] = target: Atypical kinase COQ8B, mitochondrial (Homo sapiens) (UniProt Q96D53); test: Inhibition of human ADCK4 assessed as percent of control at 2000 nM by KINOMEscan assay relative to control; parameters: scale not given: the % may be the effect or the level left
[2] = target: Bone morphogenetic protein receptor type-2 (Homo sapiens) (UniProt Q13873); test: Inhibition of human BMPR2 assessed as percent of control at 2000 nM by KINOMEscan assay relative to control; parameters: scale not given: the % may be the effect or the level left
Sequence of Bone morphogenetic protein receptor type-2 (Homo sapiens) (Q13873 whole entry): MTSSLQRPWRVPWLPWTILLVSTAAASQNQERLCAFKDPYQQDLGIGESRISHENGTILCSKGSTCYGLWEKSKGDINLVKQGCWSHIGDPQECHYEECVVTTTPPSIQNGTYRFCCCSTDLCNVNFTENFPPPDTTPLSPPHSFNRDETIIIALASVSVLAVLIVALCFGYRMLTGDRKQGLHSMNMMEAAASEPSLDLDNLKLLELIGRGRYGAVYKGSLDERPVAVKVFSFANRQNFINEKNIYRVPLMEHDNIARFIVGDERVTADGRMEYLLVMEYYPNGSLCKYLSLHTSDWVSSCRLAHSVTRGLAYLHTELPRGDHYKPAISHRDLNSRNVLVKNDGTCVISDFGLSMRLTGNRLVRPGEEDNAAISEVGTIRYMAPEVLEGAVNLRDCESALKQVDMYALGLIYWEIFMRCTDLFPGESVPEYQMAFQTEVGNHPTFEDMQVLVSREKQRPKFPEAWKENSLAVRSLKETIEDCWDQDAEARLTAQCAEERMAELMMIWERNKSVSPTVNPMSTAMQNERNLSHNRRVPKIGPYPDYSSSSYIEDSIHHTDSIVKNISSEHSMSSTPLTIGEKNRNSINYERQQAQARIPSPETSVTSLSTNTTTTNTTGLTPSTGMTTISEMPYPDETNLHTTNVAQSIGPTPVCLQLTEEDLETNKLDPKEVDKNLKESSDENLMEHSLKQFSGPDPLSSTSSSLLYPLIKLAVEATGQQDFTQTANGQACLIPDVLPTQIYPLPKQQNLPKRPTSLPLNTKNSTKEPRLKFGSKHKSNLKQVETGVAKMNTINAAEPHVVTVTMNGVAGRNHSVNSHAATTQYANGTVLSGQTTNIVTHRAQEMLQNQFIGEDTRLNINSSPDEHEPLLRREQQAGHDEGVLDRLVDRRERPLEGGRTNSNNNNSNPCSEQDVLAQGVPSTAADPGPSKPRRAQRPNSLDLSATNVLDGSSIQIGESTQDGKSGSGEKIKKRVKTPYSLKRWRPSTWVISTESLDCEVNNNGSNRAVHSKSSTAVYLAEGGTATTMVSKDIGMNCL

[3] = target: Peripheral plasma membrane protein CASK (Homo sapiens) (UniProt O14936); test: Inhibition of human CASK assessed as percent of control at 2000 nM by KINOMEscan assay relative to control; parameters: scale not given: the % may be the effect or the level left
[4] = target: Cyclin-dependent kinase 4 (Homo sapiens) (UniProt P11802); test: Inhibition of human CDK4 assessed as percent of control at 2000 nM by KINOMEscan assay relative to control; parameters: scale not given: the % may be the effect or the level left
Sequence of Cyclin-dependent kinase 4 (Homo sapiens) (P11802 whole entry): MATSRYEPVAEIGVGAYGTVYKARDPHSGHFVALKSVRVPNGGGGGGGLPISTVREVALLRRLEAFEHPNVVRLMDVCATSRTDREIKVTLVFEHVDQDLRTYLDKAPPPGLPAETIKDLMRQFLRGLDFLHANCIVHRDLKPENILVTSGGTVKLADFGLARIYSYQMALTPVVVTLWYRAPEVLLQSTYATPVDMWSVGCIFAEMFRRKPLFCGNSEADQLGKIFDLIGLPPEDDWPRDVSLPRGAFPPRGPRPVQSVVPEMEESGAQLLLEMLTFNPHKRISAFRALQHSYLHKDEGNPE

[5] = target: Cyclin-dependent kinase 5 (Homo sapiens) (UniProt Q00535); test: Inhibition of human CDK5 assessed as percent of control at 2000 nM by KINOMEscan assay relative to control; parameters: scale not given: the % may be the effect or the level left
[6] = target: Dual specificity protein kinase CLK2 (Homo sapiens) (UniProt P49760); test: Inhibition of human CLK2 assessed as percent of control at 2000 nM by KINOMEscan assay relative to control; parameters: scale not given: the % may be the effect or the level left
Sequence of Dual specificity protein kinase CLK2 (Homo sapiens) (P49760 whole entry, looked up, canonical isoform): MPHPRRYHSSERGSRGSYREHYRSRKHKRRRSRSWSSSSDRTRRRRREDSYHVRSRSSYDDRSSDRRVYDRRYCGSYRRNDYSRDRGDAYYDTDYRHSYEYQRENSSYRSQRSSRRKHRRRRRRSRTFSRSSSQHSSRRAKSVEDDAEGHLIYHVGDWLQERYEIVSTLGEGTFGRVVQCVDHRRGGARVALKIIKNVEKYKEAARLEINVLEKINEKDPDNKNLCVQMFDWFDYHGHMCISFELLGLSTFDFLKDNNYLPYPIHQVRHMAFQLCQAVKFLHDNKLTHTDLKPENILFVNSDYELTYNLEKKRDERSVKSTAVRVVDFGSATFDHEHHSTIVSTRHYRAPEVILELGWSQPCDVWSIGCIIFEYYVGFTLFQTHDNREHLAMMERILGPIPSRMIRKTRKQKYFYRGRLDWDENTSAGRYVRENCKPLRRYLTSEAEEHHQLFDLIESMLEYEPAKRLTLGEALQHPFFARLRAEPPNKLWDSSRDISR

[7] = target: Casein kinase I isoform alpha (Homo sapiens) (UniProt P48729); test: Inhibition of human CSNK1A1 assessed as percent of control at 2000 nM by KINOMEscan assay relative to control; parameters: scale not given: the % may be the effect or the level left; conditions: INHIBITOR
Sequence of Casein kinase I isoform alpha (Homo sapiens) (P48729 2-337 limits assumed): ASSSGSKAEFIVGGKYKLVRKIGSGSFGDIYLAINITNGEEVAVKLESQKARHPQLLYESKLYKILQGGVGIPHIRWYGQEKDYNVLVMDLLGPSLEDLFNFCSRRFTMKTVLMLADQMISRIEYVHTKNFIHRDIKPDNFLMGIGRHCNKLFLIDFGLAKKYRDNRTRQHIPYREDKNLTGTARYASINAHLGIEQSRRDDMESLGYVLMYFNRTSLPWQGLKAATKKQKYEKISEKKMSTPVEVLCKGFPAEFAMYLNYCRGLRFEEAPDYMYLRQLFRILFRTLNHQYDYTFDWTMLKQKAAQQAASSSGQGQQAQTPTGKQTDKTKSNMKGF

[8] = target: Serine/threonine-protein kinase DCLK1 (Homo sapiens) (UniProt O15075); test: Inhibition of human DCAMKL1 assessed as percent of control at 2000 nM by KINOMEscan assay relative to control; parameters: scale not given: the % may be the effect or the level left
[9] = target: Mitogen-activated protein kinase kinase kinase 12 (Homo sapiens) (UniProt Q12852); test: Inhibition of human DLK assessed as percent of control at 2000 nM by KINOMEscan assay relative to control; parameters: scale not given: the % may be the effect or the level left
Sequence of Mitogen-activated protein kinase kinase kinase 12 (Homo sapiens) (Q12852 whole entry): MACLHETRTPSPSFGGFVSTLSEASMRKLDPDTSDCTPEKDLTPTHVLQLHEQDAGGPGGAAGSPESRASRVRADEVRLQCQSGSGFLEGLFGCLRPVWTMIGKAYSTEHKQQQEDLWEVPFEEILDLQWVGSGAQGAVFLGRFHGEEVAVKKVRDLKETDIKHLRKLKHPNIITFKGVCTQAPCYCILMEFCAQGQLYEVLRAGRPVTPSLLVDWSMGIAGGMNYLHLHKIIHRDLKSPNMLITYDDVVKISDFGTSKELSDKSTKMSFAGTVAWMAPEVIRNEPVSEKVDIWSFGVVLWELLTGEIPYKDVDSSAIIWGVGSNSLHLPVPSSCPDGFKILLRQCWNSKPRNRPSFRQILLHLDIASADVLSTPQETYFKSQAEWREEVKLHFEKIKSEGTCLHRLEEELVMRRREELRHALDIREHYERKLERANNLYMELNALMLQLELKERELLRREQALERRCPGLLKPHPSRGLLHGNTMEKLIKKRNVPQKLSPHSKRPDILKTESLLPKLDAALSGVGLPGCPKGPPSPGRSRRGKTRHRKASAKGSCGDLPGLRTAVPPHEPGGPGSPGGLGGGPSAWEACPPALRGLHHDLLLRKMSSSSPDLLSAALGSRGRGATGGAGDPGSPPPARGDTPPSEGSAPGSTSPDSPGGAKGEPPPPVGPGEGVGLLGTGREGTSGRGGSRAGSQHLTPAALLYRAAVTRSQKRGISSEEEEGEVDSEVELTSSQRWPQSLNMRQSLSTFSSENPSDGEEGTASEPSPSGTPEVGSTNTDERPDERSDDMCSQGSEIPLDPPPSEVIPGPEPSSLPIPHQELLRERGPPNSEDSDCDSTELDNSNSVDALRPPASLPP

[10] = tested on: Epidermal growth factor receptor (Homo sapiens), P00533 [L861Q]; test: Inhibition of human EGFR L861Q mutant assessed as percent of control at 2000 nM by KINOMEscan assay relative to control; parameters: scale not given: the % may be the effect or the level left
[11] = target: Mitogen-activated protein kinase 6 (Homo sapiens) (UniProt Q16659); test: Inhibition of human ERK3 assessed as percent of control at 2000 nM by KINOMEscan assay relative to control; parameters: scale not given: the % may be the effect or the level left
[12] = target: Tyrosine-protein kinase Fer (Homo sapiens) (UniProt P16591); test: Inhibition of human FER assessed as percent of control at 2000 nM by KINOMEscan assay relative to control; parameters: scale not given: the % may be the effect or the level left
[13] = tested on: eIF-2-alpha kinase GCN2 (Homo sapiens), Q9P2K8 [S808G]; test: Inhibition of human GCN2 S808G mutant kinase domain 2 assessed as percent of control at 2000 nM by KINOMEscan assay relative to control; parameters: scale not given: the % may be the effect or the level left
[14] = target: Dual specificity mitogen-activated protein kinase kinase 4 (Homo sapiens) (UniProt P45985); test: Inhibition of human MEK4 assessed as percent of control at 2000 nM by KINOMEscan assay relative to control; parameters: scale not given: the % may be the effect or the level left
Sequence of Dual specificity mitogen-activated protein kinase kinase 4 (Homo sapiens) (P45985 whole entry): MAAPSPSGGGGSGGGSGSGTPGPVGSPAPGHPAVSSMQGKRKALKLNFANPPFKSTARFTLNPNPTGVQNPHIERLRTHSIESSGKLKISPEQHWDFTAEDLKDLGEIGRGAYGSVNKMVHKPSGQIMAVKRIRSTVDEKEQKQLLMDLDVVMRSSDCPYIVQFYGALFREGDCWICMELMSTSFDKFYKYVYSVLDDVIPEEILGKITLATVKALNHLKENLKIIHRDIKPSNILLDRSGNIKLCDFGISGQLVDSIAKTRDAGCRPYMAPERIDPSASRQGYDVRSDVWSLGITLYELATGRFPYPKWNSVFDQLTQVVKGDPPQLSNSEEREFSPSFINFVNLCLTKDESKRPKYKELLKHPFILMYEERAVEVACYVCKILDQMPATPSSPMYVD

[15] = target: Serine/threonine-protein kinase MRCK beta (Homo sapiens) (UniProt Q9Y5S2); test: Inhibition of human MRCKB assessed as percent of control at 2000 nM by KINOMEscan assay relative to control; parameters: scale not given: the % may be the effect or the level left
[16] = target: Serine/threonine-protein kinase 38-like (Homo sapiens) (UniProt Q9Y2H1); test: Inhibition of human NDR2 assessed as percent of control at 2000 nM by KINOMEscan assay relative to control; parameters: scale not given: the % may be the effect or the level left
[17] = target: Serine/threonine-protein kinase NIM1 (Homo sapiens) (UniProt Q8IY84); test: Inhibition of human NIM1 assessed as percent of control at 2000 nM by KINOMEscan assay relative to control; parameters: scale not given: the % may be the effect or the level left
[18] = target: Serine/threonine-protein kinase PAK 3 (Homo sapiens) (UniProt O75914); test: Inhibition of human PAK3 assessed as percent of control at 2000 nM by KINOMEscan assay relative to control; parameters: scale not given: the % may be the effect or the level left
Sequence of Serine/threonine-protein kinase PAK 3 (Homo sapiens) (O75914 whole entry, looked up): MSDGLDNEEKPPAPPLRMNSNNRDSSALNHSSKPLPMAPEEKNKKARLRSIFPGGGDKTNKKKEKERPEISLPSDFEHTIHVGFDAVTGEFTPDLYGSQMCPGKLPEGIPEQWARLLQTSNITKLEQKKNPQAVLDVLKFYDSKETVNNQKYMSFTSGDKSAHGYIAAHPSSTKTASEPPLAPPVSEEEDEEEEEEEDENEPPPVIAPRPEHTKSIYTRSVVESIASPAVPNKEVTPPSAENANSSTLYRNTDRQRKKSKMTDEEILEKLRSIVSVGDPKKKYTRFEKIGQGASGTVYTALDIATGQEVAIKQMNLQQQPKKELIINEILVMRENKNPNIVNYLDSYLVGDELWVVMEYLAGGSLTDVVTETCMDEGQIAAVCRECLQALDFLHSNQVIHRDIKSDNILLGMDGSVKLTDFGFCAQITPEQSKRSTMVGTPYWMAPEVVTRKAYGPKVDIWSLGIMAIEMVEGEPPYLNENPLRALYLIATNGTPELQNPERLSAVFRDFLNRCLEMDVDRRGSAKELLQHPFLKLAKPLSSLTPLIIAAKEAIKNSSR

[19] = target: Cyclin-dependent kinase 15 (Homo sapiens) (UniProt Q96Q40); test: Inhibition of human PFTAIRE2 assessed as percent of control at 2000 nM by KINOMEscan assay relative to control; parameters: scale not given: the % may be the effect or the level left
[20] = target: Membrane-associated tyrosine- and threonine-specific cdc2-inhibitory kinase (Homo sapiens) (UniProt Q99640); test: Inhibition of human PKMYT1 assessed as percent of control at 2000 nM by KINOMEscan assay relative to control; parameters: scale not given: the % may be the effect or the level left
[21] = target: Serine/threonine-protein kinase N2 (Homo sapiens) (UniProt Q16513); test: Inhibition of human PKN2 assessed as percent of control at 2000 nM by KINOMEscan assay relative to control; parameters: scale not given: the % may be the effect or the level left
Sequence of Serine/threonine-protein kinase N2 (Homo sapiens) (Q16513 whole entry, looked up): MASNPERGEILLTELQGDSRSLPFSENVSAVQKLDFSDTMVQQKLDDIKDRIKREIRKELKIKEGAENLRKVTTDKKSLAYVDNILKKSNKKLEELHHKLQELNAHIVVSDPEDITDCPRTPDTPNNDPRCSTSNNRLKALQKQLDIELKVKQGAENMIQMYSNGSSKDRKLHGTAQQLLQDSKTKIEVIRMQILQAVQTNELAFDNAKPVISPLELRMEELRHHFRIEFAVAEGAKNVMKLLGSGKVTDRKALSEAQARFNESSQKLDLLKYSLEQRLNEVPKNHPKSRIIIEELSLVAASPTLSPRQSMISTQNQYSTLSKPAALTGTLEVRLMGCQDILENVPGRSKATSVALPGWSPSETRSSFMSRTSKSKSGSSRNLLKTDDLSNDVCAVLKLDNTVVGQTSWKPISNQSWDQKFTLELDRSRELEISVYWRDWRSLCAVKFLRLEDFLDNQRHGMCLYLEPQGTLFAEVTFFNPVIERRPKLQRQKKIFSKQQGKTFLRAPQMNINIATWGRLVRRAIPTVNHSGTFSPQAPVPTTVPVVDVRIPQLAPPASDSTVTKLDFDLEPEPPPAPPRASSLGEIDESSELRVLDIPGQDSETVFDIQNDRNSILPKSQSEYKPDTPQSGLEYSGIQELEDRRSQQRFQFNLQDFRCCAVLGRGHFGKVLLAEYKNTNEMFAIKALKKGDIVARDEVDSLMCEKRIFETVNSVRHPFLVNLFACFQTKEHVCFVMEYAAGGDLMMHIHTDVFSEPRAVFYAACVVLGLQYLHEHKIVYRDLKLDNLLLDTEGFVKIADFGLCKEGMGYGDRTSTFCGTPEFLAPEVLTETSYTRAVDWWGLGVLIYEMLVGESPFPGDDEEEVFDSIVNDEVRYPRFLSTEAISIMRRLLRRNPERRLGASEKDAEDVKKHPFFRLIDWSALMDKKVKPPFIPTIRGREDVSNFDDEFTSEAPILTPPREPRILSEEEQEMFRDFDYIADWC

[22] = target: Serine/threonine-protein kinase PLK1 (Homo sapiens) (UniProt P53350); test: Inhibition of human PLK1 assessed as percent of control at 2000 nM by KINOMEscan assay relative to control; parameters: scale not given: the % may be the effect or the level left
[23] = target: Ribosomal protein S6 kinase beta-1 (Homo sapiens) (UniProt P23443); test: Inhibition of human S6K1 assessed as percent of control at 2000 nM by KINOMEscan assay relative to control; parameters: scale not given: the % may be the effect or the level left
[24] = target: Activated CDC42 kinase 1 (Homo sapiens) (UniProt Q07912); test: Inhibition of human TNK2 assessed as percent of control at 2000 nM by KINOMEscan assay relative to control; parameters: scale not given: the % may be the effect or the level left
[25] = target: Casein kinase I isoform alpha (Homo sapiens) (UniProt P48729); conditions: INHIBITOR, dose 2000.0 nM
Description: Inhibition of human CSNK1A1 at 2000 nM by KINOMEscan assay

CN(C)C(=O)c1ccc(N2CCCN(c3ccnc4sc(C(N)=O)c(N)c34)CC2)cc1
Activity [1]: 95% and 83%
Activity [2]: 79% and 88%
Activity [3]: 71% and 96%
Activity [4]: 73% and 71%
Activity [5]: 84% and 94%
Activity [6]: 75% and 83%
Activity [7]: 33% and 12%
Activity [8]: 100% and 89%
Activity [9]: 93% and 89%
Activity [10]: 78% and 100%
Activity [11]: 88% and 94%
Activity [12]: 99% and 100%
Activity [13]: 73% and 88%
Activity [14]: 69% and 74%
Activity [15]: 96% and 100%
Activity [16]: 99%
Activity ([16]; INHIBITOR): 36%
Activity [17]: 56% and 78%
Activity [18]: 80%
Activity ([18]; INHIBITOR): 40%
Activity [19]: 100% and 80%
Activity [20]: 91% and 94%
Activity [21]: 100%
Activity [22]: 95% and 89%
Activity [23]: 95% and 89%
Activity [24]: 100%
inhibition [25]: > 65%
